# Experimental data taken from patent US6838456B2, “Condensed pyridoindole derivatives” (Lilly ICOS LLC, priority 2000, dated 2005).
# Target: human recombinant PDE5 (Homo sapiens, UniProt O76074)
# Experiment: Inhibitory effect on cGMP-PDE (one-step assay, 8-[H3]-cGMP)
# Type: biochemical
# Details: in vitro
# Experimental: The compounds of structural formula (I) were tested for an ability to inhibit PDE5. The ability of a compound to inhibit PDE5 activity is related to the IC50 value for the compound, i.e., the concentration of inhibitor required for 50% inhibition of enzyme activity. The IC50 value for compounds of structural formula (I) were determined using recombinant human PDE5.
# cGMP-PDE activity of compounds of the present invention was measured using a one-step assay adapted from Wells et al., Biochim. Biophys. Acta, 384, 430 (1975). The reaction medium contained 50 mM Tris-HCl, pH 7.5, 5 mM magnesium acetate, 250 μg/ml 5′-Nucleotidase, 1 mM EGTA, and 0.15 μM 8-[H^3]-cGMP. Unless otherwise indicated, the enzyme used was a human recombinant PDE5 (ICOS Corp., Bothell, Wash.).
# Compounds of the invention were dissolved in DMSO finally present at 2% in the assay.
compound,measurement,value
CCOC(=O)c1cc(CO)n2c1Cc1c([nH]c3ccccc13)C2c1ccc2c(c1)OCO2 (stereo not drawn) [Example 18],IC50,10 nM
O=C(NCCN1CCOCC1)c1ccn2c1Cc1c([nH]c3ccccc13)C2c1ccc2c(c1)OCO2 (stereo not drawn) [Example 31],IC50,20 nM
CN(C)CCNC(=O)c1ccn2c1Cc1c([nH]c3ccccc13)C2c1ccc2c(c1)OCO2 (stereo not drawn) [Example 26],IC50,110 nM
CCc1cc(C(=O)NCc2ccccn2)c2n1C(c1ccc3c(c1)OCO3)c1[nH]c3ccccc3c1C2 (stereo not drawn) [Example 53],IC50,50 nM
NCCNC(=O)c1ccn2c1Cc1c([nH]c3ccccc13)C2c1ccc2c(c1)OCO2 (stereo not drawn) [Example 30],IC50,10 nM
"CCOC(=O)c1c(C(=O)OCC)c2n(c1C)[C@H](c1ccc3c(c1)OCO3)c1[nH]c3ccccc3c1C2 [Example 1, (R)-5-Benzo[1,3]dioxol-5-yl-3-methyl-6,11-dihydro-5H-indolizino[6,7-b]indole-1,2-dicarboxylic acid diethyl ester]",IC50,5.6 nM
O=C(NCc1ccccn1)c1ccn2c1Cc1c([nH]c3ccccc13)C2c1ccc2c(c1)OCO2 (stereo not drawn) [Example 28],IC50,3.7 nM
O=C(O)C1CCN(C(=O)c2ccn3c2Cc2c([nH]c4ccccc24)C3c2ccc3c(c2)OCO3)CC1 (stereo not drawn) [Example 22],IC50,3 nM
CCOC(=O)c1c(C(=O)O)c(CC)n2c1Cc1c([nH]c3ccccc13)C2c1ccc2c(c1)OCO2 (stereo not drawn) [Example 13],IC50,5.9 nM
N#Cc1ccn2c1Cc1c([nH]c3ccccc13)C2c1ccc2c(c1)OCO2 (stereo not drawn) [Example 27],IC50,3.6 nM
O=C(NCC1CCCO1)c1ccn2c1Cc1c([nH]c3ccccc13)C2c1ccc2c(c1)OCO2 (stereo not drawn) [Example 14],IC50,5.8 nM
CCOC(=O)c1c(C(=O)OCC)c(C(C)C)n2c1Cc1c([nH]c3ccccc13)C2c1ccc2c(c1)OCO2 (stereo not drawn) [Example 15],IC50,190 nM
CN1CCC(N(C)C(=O)c2ccn3c2Cc2c([nH]c4ccccc24)C3c2ccc3c(c2)OCO3)CC1 (stereo not drawn) [Example 16],IC50,330 nM
CCOC(=O)c1ccn2c1Cc1c([nH]c3ccccc13)C2c1ccc2c(c1)OCO2 (stereo not drawn) [Example 35],IC50,5.5 nM
CCOC(=O)c1c(C(=O)OCC)c2n(c1CC)C(c1ccc3c(c1)OCO3)c1[nH]c3ccccc3c1C2 (stereo not drawn) [Example 12],IC50,10 nM
O=C(NCc1cccc[n+]1[O-])c1ccn2c1Cc1c([nH]c3ccccc13)C2c1ccc2c(c1)OCO2 (stereo not drawn) [Example 20],IC50,1.5 nM
CCOC(=O)c1cc(CN)n2c1Cc1c([nH]c3ccccc13)C2c1ccc2c(c1)CCO2 (stereo not drawn) [Example 8],IC50,40 nM
O=C(NCCn1cccn1)c1ccn2c1Cc1c([nH]c3ccccc13)C2c1ccc2c(c1)OCO2 (stereo not drawn) [Example 17],IC50,8 nM
O=C(NCCc1ccccn1)c1ccn2c1Cc1c([nH]c3ccccc13)C2c1ccc2c(c1)OCO2 (stereo not drawn) [Example 24],IC50,2.1 nM
CCOC(=O)c1cn2c(c1C(=O)OCC)Cc1c([nH]c3ccccc13)C2c1ccc2c(c1)OCO2 (stereo not drawn) [Example 21],IC50,1.2 nM
CCOC(=O)c1cc(C(C)C)n2c1Cc1c([nH]c3ccccc13)C2c1ccc2c(c1)OCO2 (stereo not drawn) [Example 19],IC50,460 nM
c1ccc2c3c([nH]c2c1)C(c1ccc2c(c1)OCO2)n1cccc1C3 (stereo not drawn) [Example 10],IC50,140 nM
CCOC(=O)c1cc(CNCc2ccccc2)n2c1Cc1c([nH]c3ccccc13)C2c1ccc2c(c1)OCO2 (stereo not drawn) [Example 6],IC50,10 nM
O=C(O)c1ccn2c1Cc1c([nH]c3ccccc13)C2c1ccc2c(c1)OCO2 (stereo not drawn) [Example 36],IC50,10 nM
CCOC(=O)c1cc(C=O)n2c1Cc1c([nH]c3ccccc13)C2c1ccc2c(c1)OCO2 (stereo not drawn) [Example 23],IC50,3.9 nM
CN(C(=O)O)C(=O)c1ccn2c1Cc1c([nH]c3ccccc13)C2c1ccc2c(c1)OCO2 (stereo not drawn) [Example 29],IC50,3.8 nM
O=C(NCc1cccnc1)c1ccn2c1Cc1c([nH]c3ccccc13)C2c1ccc2c(c1)OCO2 (stereo not drawn) [Example 25],IC50,5.9 nM
